Source: ChEMBL document CHEMBL1671859, “bla(IMP-4) in different genetic contexts in Enterobacteriaceae isolates from Australia” (2008)

Assays:
Type in all cases: functional
[1] = test system: Klebsiella pneumoniae; experiment: Antibacterial activity against Klebsiella pneumoniae isolate Kp1239 harboring IncL/M plasmid and blaIMP-4-qacG2-aacA4-catB3 array by Etest method in presence of clavulanic acid
[2] = test system: Klebsiella pneumoniae; experiment: Antibacterial activity against Klebsiella pneumoniae isolate Kp1945 harboring IncL/M plasmid, blaIMP-4-qacG2-aacA4-catB3 and dfrA12-orfF-aadA2 arrays by Etest method in presence of clavulanic acid
[3] = test system: Enterobacter cloacae; experiment: Antibacterial activity against Enterobacter cloacae isolate El3280 harboring IncL/M plasmid and blaIMP-4-qacG2-aacA4-catB3 array by Etest method in presence of clavulanic acid
[4] = test system: Enterobacter cloacae; experiment: Antibacterial activity against Enterobacter cloacae isolate El3518 harboring IncL/M plasmid and blaIMP-4-qacG2-aacA4-catB3 array by Etest method in presence of clavulanic acid
[5] = test system: Enterobacter cloacae; experiment: Antibacterial activity against Enterobacter cloacae isolate El1573 harboring IncL/M plasmid and blaIMP-4-qacG2-aacA4-catB3 array by Etest method in presence of clavulanic acid
[6] = test system: Serratia marcescens; experiment: Antibacterial activity against Serratia marcescens isolate Sm2723 harboring IncL/M plasmid and blaIMP-4-qacG2-aacA4-catB3 array by Etest method in presence of clavulanic acid
[7] = test system: Klebsiella pneumoniae; experiment: Antibacterial activity against Klebsiella pneumoniae isolate Kp7564 harboring IncL/M plasmid and blaIMP-4-qacG2-aacA4-catB3 array by Etest method in presence of clavulanic acid
[8] = test system: Morganella morganii; experiment: Antibacterial activity against Morganella morganii isolate Mm38009 harboring IncL/M plasmid and blaIMP-4-qacG2-aacA4-catB3 array by Etest method in presence of clavulanic acid
[9] = test system: Klebsiella pneumoniae; experiment: Antibacterial activity against Klebsiella pneumoniae isolate Kp38045 harboring IncL/M plasmid and blaIMP-4-qacG2-aacA4-catB3 array by Etest method in presence of clavulanic acid
[10] = test system: Escherichia coli; experiment: Antibacterial activity against Escherichia coli isolate Ec9381 harboring IncL/M plasmid and blaIMP-4-qacG2-aacA4-catB3 array by Etest method in presence of clavulanic acid
[11] = test system: Enterobacter cloacae; experiment: Antibacterial activity against Enterobacter cloacae isolate El3799 harboring IncL/M plasmid and blaIMP-4-qacG2-aacA4-catB3 array by Etest method in presence of clavulanic acid
[12] = test system: Klebsiella pneumoniae; experiment: Antibacterial activity against Klebsiella pneumoniae isolate Kp3799 harboring IncL/M plasmid and blaIMP-4-qacG2-aacA4-catB3 array by Etest method in presence of clavulanic acid
[13] = test system: Morganella morganii; experiment: Antibacterial activity against Morganella morganii isolate Mm1614 harboring IncL/M plasmid and blaIMP-4-qacG2-aacA4-catB3 array by Etest method in presence of clavulanic acid
[14] = test system: Klebsiella pneumoniae; experiment: Antibacterial activity against Klebsiella pneumoniae isolate Kp4614 in presence of clavulanic acid
[15] = test system: Serratia marcescens; experiment: Antibacterial activity against Serratia marcescens isolate Sm220 harboring IncA/C plasmid and blaIMP-4-qacG2-aacA4-catB3 array by Etest method in presence of clavulanic acid
[16] = test system: Serratia marcescens; experiment: Antibacterial activity against Serratia marcescens isolate Sm201 harboring IncA/C plasmid and blaIMP-4-qacG2-aacA4-catB3 array by Etest method in presence of clavulanic acid
[17] = test system: Escherichia coli; experiment: Antibacterial activity against Escherichia coli isolate Ec211 harboring IncA/C plasmid and blaIMP-4-qacG2-aacA4-catB3 array by Etest method in presence of clavulanic acid
[18] = test system: Klebsiella oxytoca; experiment: Antibacterial activity against Klebsiella oxytoca isolate Ko238 harboring IncA/C plasmid and blaIMP-4-qacG2-aacA4-catB3 array by Etest method in presence of clavulanic acid
[19] = test system: Klebsiella pneumoniae; experiment: Antibacterial activity against Klebsiella pneumoniae isolate Kp204 harboring IncA/C plasmid and blaIMP-4-qacG2-aacA4-catB3 array by Etest method in presence of clavulanic acid
[20] = test system: Serratia marcescens; experiment: Antibacterial activity against Serratia marcescens isolate Sm265 harboring IncA/C plasmid and blaIMP-4-qacG2-aacA4-catB3 array by Etest method in presence of clavulanic acid
[21] = test system: Acinetobacter; experiment: Antibacterial activity against Acinetobacter isolate A74510 harboring blaIMP-4-qacG2-aacA4-catB3 array by Etest method in presence of clavulanic acid
[22] = test system: Acinetobacter baumannii; experiment: Antibacterial activity against Acinetobacter baumannii isolate AbN450 harboring blaIMP-4-qacG2-aacA4-catB3 array by Etest method in presence of clavulanic acid
[23] = test system: Citrobacter youngae; experiment: Antibacterial activity against Citrobacter youngae isolate CyB38 harboring blaIMP-4-qacG2-aacA4-catB3 array by Etest method in presence of clavulanic acid
[24] = test system: Enterobacter cloacae; experiment: Antibacterial activity against Enterobacter cloacae El3518 transconjugant harboring IncL/M plasmid and blaIMP-4-qacG2-aacA4-catB3 array by Etest method in presence of clavulanic acid
[25] = test system: Enterobacter cloacae; experiment: Antibacterial activity against Enterobacter cloacae El1573 transconjugant harboring IncL/M plasmid and blaIMP-4-qacG2-aacA4-catB3 array by Etest method in presence of clavulanic acid
[26] = test system: Klebsiella pneumoniae; experiment: Antibacterial activity against Klebsiella pneumoniae Kp38009 transconjugant harboring IncL/M plasmid and blaIMP-4-qacG2-aacA4-catB3 array by Etest method in presence of clavulanic acid
[27] = test system: Klebsiella pneumoniae; experiment: Antibacterial activity against Klebsiella pneumoniae Kp38045 transconjugant harboring IncL/M plasmid and blaIMP-4-qacG2-aacA4-catB3 array by Etest method in presence of clavulanic acid
[28] = test system: Morganella morganii; experiment: Antibacterial activity against Morganella morganii Mm1229 transconjugant harboring IncL/M plasmid and blaIMP-4-qacG2-aacA4-catB3 array by Etest method in presence of clavulanic acid
[29] = test system: Enterobacter cloacae; experiment: Antibacterial activity against Enterobacter cloacae El3799 transconjugant harboring IncL/M plasmid and blaIMP-4-qacG2-aacA4-catB3 array by Etest method in presence of clavulanic acid
[30] = test system: Klebsiella pneumoniae; experiment: Antibacterial activity against Klebsiella pneumoniae Kp3799 transconjugant harboring IncL/M plasmid and blaIMP-4-qacG2-aacA4-catB3 array by Etest method in presence of clavulanic acid
[31] = test system: Klebsiella oxytoca; experiment: Antibacterial activity against Klebsiella oxytoca Ko1156 transconjugant harboring IncL/M plasmid and blaIMP-4-qacG2-aacA4-catB3 array by Etest method in presence of clavulanic acid
[32] = test system: Escherichia coli; experiment: Antibacterial activity against Escherichia coli Ec158 transconjugant harboring IncA/C plasmid and blaIMP-4-qacG2-aacA4-catB3 array by Etest method in presence of clavulanic acid
[33] = test system: Klebsiella pneumoniae; experiment: Antibacterial activity against Klebsiella pneumoniae Kp149 transconjugant harboring IncA/C plasmid and blaIMP-4-qacG2-aacA4-catB3 array by Etest method in presence of clavulanic acid
[34] = test system: Escherichia coli; experiment: Antibacterial activity against Escherichia coli Ec221 transconjugant harboring IncA/C plasmid and blaIMP-4-qacG2-aacA4-catB3 array by Etest method in presence of clavulanic acid
[35] = test system: Klebsiella oxytoca; experiment: Antibacterial activity against Klebsiella oxytoca Ko238 transconjugant harboring IncA/C plasmid and blaIMP-4-qacG2-aacA4-catB3 array by Etest method in presence of clavulanic acid
[36] = test system: Serratia marcescens; experiment: Antibacterial activity against Serratia marcescens Sm265 transconjugant harboring IncA/C plasmid and blaIMP-4-qacG2-aacA4-catB3 array by Etest method in presence of clavulanic acid
[37] = test system: Citrobacter youngae; experiment: Antibacterial activity against Citrobacter youngae CyB38 transconjugant harboring blaIMP-4-qacG2-aacA4-catB3 array by Etest method in presence of clavulanic acid

Measured: MIC

CC1(C)S[C@@H]2[C@H](NC(=O)[C@H](N)c3ccc(O)cc3)C(=O)N2[C@H]1C(=O)O [AMOXICILLIN]
> 16 µg/mL: all assays above
